Measurements from article PMC6940900, “Antiviral Activity of Benzoic Acid Derivative NC-5 Against Influenza A Virus and Its Neuraminidase Inhibition” (International Journal of Molecular Sciences, 2019).

Tests used:
[1] = molecular target: NA of A/Anhui/1/2013 (H7N9) (Influenza A virus (A/Anhui/1-BALF_RG1/2013(H7N9)), UniProt A0A024E3Q2); type: cell-based
[2] = molecular target: NA of A/Vietnam/1203/2004 (H5N1) (Influenza A virus (A/Viet Nam/1203/2004(H5N1)), UniProt Q6DPL2); test: cell-based

O=C(O)c1ccc(N2C(=O)CCC2(CO)CO)c(Nc2nnc(C3CCCCC3)[nH]2)c1 [compound 5]
IC50 [1]: > 480 µM
IC50 [2]: > 480 µM
